Results: patent publication US8263606B2 (Xenon Pharmaceuticals Inc., priority 2008, dated 2012)
Structures can show the parent of a compound that is named as a salt.

Columns and labels:
sodium channel = assay: Guanidine influx assay (14C-guanidine radiotracer flux, in vitro); type: cell-based, human or rat; conditions: guanidine influx assay using a known cell line that expresses a sodium channel
Description: This example describes an in vitro assay for testing and profiling test agents against human or rat sodium channels stably expressed in cells of either an endogenous or recombinant origin. The assay is also useful for determining the IC50 of a sodium channel blocking compound. The assay is based on the guanidine flux assay described by Reddy, N. L., et al., J. Med. Chem. (1998), 41(17):3298-302.
The guanidine influx assay is a radiotracer flux assay used to determine ion flux activity of sodium channels in a high-throughput microplate-based format. The assay uses ^14C-guanidine hydrochloride in combination with various known sodium channel modulators, to assay the potency of test agents. Potency is determined by an IC50 calculation. Selectivity is determined by comparing potency of the compound for the channel of interest to its potency against other sodium channels (also called ‘selectivity profiling’).
Each of the test agents is assayed against cells that express the channels of interest. Voltage gated sodium channels are either TTX sensitive or insensitive. This property is useful when evaluating the activities of a channel of interest when it resides in a mixed population with other sodium channels. The following Table 1 summarizes cell lines useful in screening for a certain channel activity in the presence or absence of TTX.
It is also possible to employ recombinant cells expressing these sodium channels. Cloning and propagation of recombinant cells are known to those skilled in the art (see, for example, Klugbauer, N, et al., EMBO J. (1995), 14(6):1084-90; and Lossin, C., et al., Neuron (2002), 34, pp. 877-884).
Cells expressing the channel of interest are grown according to the supplier or in the case of a recombinant cell in the presence of selective growth media such as G418 (Gibco/Invitrogen). The cells are disassociated from the culture dishes with an enzymatic solution (Ix) Trypsin/EDTA (Gibco/Invitrogen) and analyzed for density and viability using haemocytometer (Neubauer). Disassociated cells are washed and resuspended in their culture media then plated into Scintiplates (Beckman Coulter Inc.) (approximately 100,000 cells/well) and incubated at 37° C./5% CO2 for 20-24 hours. After an extensive wash with Low sodium HEPES-buffered saline solution (LNHBSS) (150 mM Choline Chloride, […] (Sigma), 1 mM Calcium Chloride, 5 mM Potassium Chloride, 1 mM Magnesium Chloride, 10 mM Glucose) agents diluted with LNHBSS are added to each well. (Varying concentrations of test agent may be used). The activation/radiolabel mixture contains aconitine (Sigma) to increase the percentage of time that the sodium channels are open, and ^14C-guanidine hydrochloride (ARC) to measure flux through the voltage-gated sodium channels.
After loading the cells with test agent and activation/radiolabel mixture, the Scintiplates are incubated at ambient temperature. Following the incubation, the Scintplates are extensively washed with LNHBSS supplemented with guanidine (Sigma). The Scintiplates are dried and then counted using a Wallac MicroBeta TriLux (Perkin-Elmer Life Sciences). The ability of the test agent to block sodium channel activity is determined by comparing the amount of ^14C-guanidine present inside the cells expressing the different sodium channels.
The IC50 value of a test agent for a specific sodium channel may be determined using the above general method. […] Typically the mid-point concentration of test agent is set at 1 μM, and sequential concentrations of half dilutions greater or smaller are applied (e.g. 0.5 μM; 5 μM and 0.25 μM; 10 μM and 0.125 μM; 20 μM etc.). The IC50 curve is calculated using the 4 Parameter Logistic Model or Sigmoidal Dose-Response Model formula (fit=(A+((B−A)/(1+((C/x)^D)))).
The fold selectivity, factor of selectivity or multiple of selectivity, is calculated by dividing the IC50 value of the test sodium channel by the reference sodium channel, for example, Nav1.5. […]

CYP3A4 = CYP3A4 (Homo sapiens, UniProt P08684); assay: Cytochrome P450 (CYP450) Inhibition Assay, CYP3A4 (Vivid fluorescence, BOMCC substrate); conditions: human, P450 Baculosomes (recombinant CYP3A4), probe BOMCC (Vivid substrate)
CYP3A4, sequence (P08684 whole entry): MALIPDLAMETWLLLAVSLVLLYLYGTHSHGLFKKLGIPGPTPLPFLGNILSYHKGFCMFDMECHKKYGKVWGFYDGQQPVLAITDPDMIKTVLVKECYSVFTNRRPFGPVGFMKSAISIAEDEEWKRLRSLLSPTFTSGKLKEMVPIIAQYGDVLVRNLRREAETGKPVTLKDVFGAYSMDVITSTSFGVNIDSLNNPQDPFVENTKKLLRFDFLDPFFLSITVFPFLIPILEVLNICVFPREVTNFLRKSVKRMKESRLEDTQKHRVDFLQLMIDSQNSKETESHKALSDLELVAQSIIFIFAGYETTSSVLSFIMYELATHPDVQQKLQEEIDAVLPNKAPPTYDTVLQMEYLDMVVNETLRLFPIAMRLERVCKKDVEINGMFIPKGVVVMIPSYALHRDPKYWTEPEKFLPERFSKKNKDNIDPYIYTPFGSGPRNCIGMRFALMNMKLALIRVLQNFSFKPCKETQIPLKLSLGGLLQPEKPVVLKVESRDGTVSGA

IC50 (sodium channel) [nM]	inhibition at 10 µM (CYP3A4) [%]	IC50 (sodium channel; activity level class) [nM]	Compound
1 to 100	> 50		CN1CCN(CN2C(=O)C3(COc4cc5c(cc43)OCO5)c3ccccc32)CC1 (stereo not drawn) [Example 11.63, 1′-[(4-methylpiperazin-1-yl)methyl]spiro[furo[2,3-f][1,3]benzodioxole-7,3′-indol]-2′(1′H)-one hydrogen chloride]
	> 50	1 to 100	O=C1N(Cc2ccc(C(F)(F)F)o2)c2cccc(Cl)c2C12COc1cc3c(cc12)OCO3 (stereo not drawn) [Example 4.90, 4′-chloro-1′-{[5-(trifluoromethyl)-2-furyl]methyl}spiro[furo[2,3-f][1,3]benzodioxole-7,3′-indol]-2′(1′H)-one]
100 to 1000	> 50		CC(CNC(=O)c1cccc(CN2C(=O)C3(COc4cc5c(cc43)CCO5)c3ccccc32)c1)c1ccccc1 (stereo not drawn) [Example 12.5, 3-[(2′-oxo-5,6-dihydrospiro[benzo[1,2-b:5,4-b′]difuran-3,3′-indol]-1′(2′H)-yl)methyl]-N-(2-phenylpropyl)benzamide]
	> 50	1 to 100	O=C1N(Cc2cccc(F)c2F)c2ccccc2C12COc1cc3c(cc12)OCCO3 (stereo not drawn) [Example 7.19, 1-(2,3-difluorobenzyl)-2,3-dihydrospiro[furo[2,3-g][1,4]benzodioxine-8,3′-indol]-2′(1′H)-one]
	< 50	1000 to 10000	O=C1N(Cc2ccccn2)c2ccccc2C12COc1cc3c(cc12)S(=O)(=O)C=C3 (stereo not drawn) [Example 5.31, 1-(pyridin-2-ylmethyl)spiro[indole-3,3′-thieno[2,3-f][1]benzofuran]-2(1′H)-one 5,5′-dioxide]
100 to 1000	< 50		COCCOCCN1C(=O)C2(COc3cc(OCCOC)ccc32)c2ccccc21 (stereo not drawn) [Example 9.75, 6-(2-methoxyethoxy)-1′-[2-(2-methoxyethoxy)ethyl]spiro[1-benzofuran-3,3′-indol]-2′(1′H)-one]
1000 to 10000	> 50		O=C1N(Cc2ccc(-c3nnn[nH]3)cc2)c2ccccc2C12COc1cc3c(cc12)CCO3 (stereo not drawn) [Example 11.44, 1′-[4-(1H-tetrazol-5-yl)benzyl]-5,6-dihydrospiro[benzo[1,2-b:5,4-b′]difuran-3,3′-indol]-2′(1′H)-one]
	> 50	1000 to 10000	O=C1N(Cc2ccc(C(F)(F)F)o2)c2ccccc2C12COc1cc(Br)ccc12 (stereo not drawn) [Example 2.22, 6-bromo-1′-((5-(trifluoromethyl)furan-2-yl)methyl)-2H-spiro[benzofuran-3,3′-indolin]-2′-one]
1000 to 10000	> 50		O=C1N(C[C@H]2CCCO2)c2cccc(-c3csc4ccccc34)c2C12COc1cc3c(cc12)CCO3 (stereo partly drawn) [Example 16.3, 4′-(1-benzothiophen-3-yl)-1′-[(2R)-tetrahydrofuran-2-ylmethyl]-5,6-dihydrospiro[benzo[1,2-b:5,4-b′]difuran-3,3′-indol]-2′(1′H)-one]
	< 50	1 to 100	COc1ccc2c(c1)OCC21C(=O)N(CC2CCCCO2)c2ccccc21 (stereo not drawn) [Example 9.36, 6-methoxy-1′-(tetrahydro-2H-pyran-2-ylmethyl)spiro[1-benzofuran-3,3′-indol]-2′(1′H)-one]
100 to 1000	> 50		O=C1N(Cc2ccc(-c3cccnc3)cc2)c2ccccc2C12COc1cc3c(cc12)CCO3 (stereo not drawn) [Example 11.16, 1′-(4-pyridin-3-ylbenzyl)-5,6-dihydrospiro[benzo[1,2-b:5,4-b′]difuran-3,3′-indol]-2′(1′H)-one]
	< 50	1 to 100	O=C1N(Cc2ccccc2F)c2ccccc2C12COc1cc3c(cc12)CCO3 (stereo not drawn) [Example 4.12, 1′-(2-fluorobenzyl)-5,6-dihydrospiro[benzo[1,2-b:5,4-b′]difuran-3,3′-indol]-2′(1′H)-one]
100 to 1000	> 50		Nc1cc(-c2ccc(CN3C(=O)C4(COc5cc6c(cc54)OCCO6)c4ccccc43)cc2)[nH]n1 (stereo not drawn) [Example 29.2, 1′-[4-(3-amino-1H-pyrazol-5-yl)benzyl]-2,3-dihydrospiro[furo[2,3-g][1,4]benzodioxine-8,3′-indol]-2′(1′H)-one hydrochloride]
	> 50	1 to 100	O=C1N(Cc2cc(F)cc(F)c2)c2ccccc2C12COc1cc3c(cc12)OCCO3 (stereo not drawn) [Example 7.20, 1′-(3,5-difluorobenzyl)-2,3-dihydrospiro[furo[2,3-g][1,4]benzodioxine-8,3′-indol]-2′(1′H)-one]
	> 50	1 to 100	CC1(C)COC(C)(CCN2C(=O)C3(COc4cc5c(cc43)OCCO5)c3ccccc32)OC1 (stereo not drawn) [Example 7.28]
	< 50	1 to 100	O=C1N(Cc2cc(C(F)(F)F)ccc2F)c2ccccc2C12COc1cc3c(cc12)OCCO3 (stereo not drawn) [Example 7.26, 1′-[(2-fluoro-5-trifluoromethyl)benzyl]-2,3-dihydrospiro[furo[2,3-g][1,4]benzodioxine-8,3′-indol]-2′(1′H)-one]
	> 50	1000 to 10000	O=C1N(Cc2ccc(C(F)(F)F)o2)c2ccccc2C12COc1cc(F)c(F)cc12 (stereo not drawn) [Example 9.32, 5,6-difluoro-1′-{[5-(trifluoromethyl)furan-2-yl]methyl}spiro[1-benzofuran-3,3′-indol]-2′(1′H)-one]
	> 50	1000 to 10000	O=C1Nc2ccc3ncsc3c2C12COc1cc3c(cc12)OCCO3 (stereo not drawn) [Example 3.49, 2,3-dihydrospiro[furo[2,3-g][1,4]benzodioxine-8,8′-[1,3]thiazolo[5,4-e]indol]-7′(6′H)-one]
	< 50	1000 to 10000	O=C1Nc2ccccc2C12COc1cc3c(cc12)S(=O)(=O)C=C3 (stereo not drawn) [Example 3.40, spiro[indole-3,3′-thieno[2,3-f][1]benzofuran]-2(1′H)-one 5,5′-dioxide]
	> 50	1 to 100	COC(=O)c1ccc(CN2C(=O)C3(COc4cc5c(cc43)CCO5)c3ccccc32)o1 (stereo not drawn) [Example 4.7, methyl 5-[(2′-oxo-5,6-dihydrospiro[benzo[1,2-b:5,4-b′]difuran-3,3′-indol]-1′(2′H)-yl)methyl]furan-2-carboxylate]
	< 50	1 to 100	COC(=O)c1ccccc1CN1C(=O)C2(COc3cc4c(cc32)CCO4)c2ccccc21 (stereo not drawn) [Example 9.14, methyl 2-[(2′-oxo-5,6-dihydrospiro[benzo[1,2-b:5,4-b′]difuran-3,3′-indol]-1′(2′H)-yl)methyl]benzoate]
	> 50	1 to 100	O=C1N(Cc2ccccn2)c2ccccc2C12COc1cc3c(c(F)c12)OCCO3 (stereo not drawn) [Example 5.25, 9-fluoro-1′-(pyridin-2-ylmethyl)-2,3-dihydro-spiro[furo[2,3-g][1,4]benzodioxine-8,3′-indol]-2′(1′H)-one]
1000 to 10000	< 50		CCc1ccc(NC(=O)CN2C(=O)C3(COc4cc5c(cc43)CCO5)c3ccccc32)cc1 (stereo not drawn) [Example 12.47, N-(4-ethylphenyl)-2-(2′-oxo-5,6-dihydrospiro[benzo[1,2-b:5,4-b′]difuran-3,3′-indol]-1′(2′H)-yl)acetamide]
100 to 1000	< 50		NC(=O)c1coc(CN2C(=O)C3(COc4cc5c(cc43)CCO5)c3ccccc32)n1 (stereo not drawn) [Example 13.3, 2-[(2′-oxo-5,6-dihydrospiro[benzo[1,2-b:5,4-b′]difuran-3,3′-indol]-1′(2′H)-yl)methyl]-1,3-oxazole-4-carboxamide]
